According to patent publication US20110251211A9, “METHODS OF USING SUBSTITUTED ISOXAZOLO PYRIDINONES AS DISSOCIATED GLUCOCORTICOIDS” (priority 2009, published 2011):

Tests used:
Format in all cases: cell-based
GR [1] = target: T1, GR (Homo sapiens, UniProt P04150); assay: GR transactivation on MMTV in AD293 cells (pHHLuc dual-luciferase reporter); settings: FIG. 5
T1 construct: expressed in transfected cells; host or cells: AD293 cells
T1 sequence (P04150 1-777): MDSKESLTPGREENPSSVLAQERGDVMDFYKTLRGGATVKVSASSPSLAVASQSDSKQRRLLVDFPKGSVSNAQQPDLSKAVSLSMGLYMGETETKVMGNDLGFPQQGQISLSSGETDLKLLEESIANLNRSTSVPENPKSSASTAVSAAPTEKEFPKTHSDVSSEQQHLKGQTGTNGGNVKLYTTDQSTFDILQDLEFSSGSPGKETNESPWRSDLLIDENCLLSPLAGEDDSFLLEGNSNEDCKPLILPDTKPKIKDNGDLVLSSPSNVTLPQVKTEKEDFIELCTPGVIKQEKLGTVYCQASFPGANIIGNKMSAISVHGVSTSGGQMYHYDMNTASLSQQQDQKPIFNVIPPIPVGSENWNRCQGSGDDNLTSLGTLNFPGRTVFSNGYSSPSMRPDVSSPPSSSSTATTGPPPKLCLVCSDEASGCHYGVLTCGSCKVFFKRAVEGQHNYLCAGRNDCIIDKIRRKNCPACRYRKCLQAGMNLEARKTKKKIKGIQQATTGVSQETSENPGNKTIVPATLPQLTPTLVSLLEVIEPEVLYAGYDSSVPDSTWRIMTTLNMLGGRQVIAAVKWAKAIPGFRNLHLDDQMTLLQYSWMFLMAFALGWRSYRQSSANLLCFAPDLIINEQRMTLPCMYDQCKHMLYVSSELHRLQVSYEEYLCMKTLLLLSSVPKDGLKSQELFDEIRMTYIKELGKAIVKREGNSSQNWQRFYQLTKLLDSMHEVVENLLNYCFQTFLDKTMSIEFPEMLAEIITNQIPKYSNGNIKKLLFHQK
Experimental: GR Transactivation on MMTV in∘AD293 Cells Transfected with 0.5 ng GR
AD293 cells were transfected with 0.5 ng GR, 100 ng pHHLuc reporter together with 5 ng Renilla control plasmids, then induced by EtOH (vehicle control), Dexamethasone (10 nM), Compound #53 (5 μM), AL438 (1 μM) and DMSO (vehicle control). Dual-Luciferase values were measured by Promega standard manual, Compound #53's transactivation activity on MMTV in AD293 cells is shown in FIG. 5.

GR [2] = target: T1, GR; assay: GR transrepression of AP1 in AD293 cells (AP1-Luc dual-luciferase reporter)
Experimental: FIG. 9 is a bar graph showing the dose-response of Compound #53 on GR transrepression of AP1 in AD293 cells.
GR Transrepression of AP1 in AD293 Cells Transfected with 10 ng GR
AD293 cells were transfected with 10 ng GR, 100 ng AP1-Luc reporter together with 5 ng Renilla control plasmids, then induced by EtOH (vehicle control), Dexamethasone (10 nM), Compound #53 (5 μM), AL438 (1 μM). Dual-Luciferase values were measured by Promega standard manual.
GR Transpression of AP 1 in AD293 Cells Transfected with 50 ng GR
AD293 cells were transfected with 50 ng GR, 100 ng AP1-Luc reporter together with 5 ng Renilla control plasmids, then induced by PMA+EtOH (vehicle control), PMA+Dexamethasone (10 nM), PMA+Compound #53 (5 μM). Dual-Luciferase values were measured by Promega standard manual.

GR [3] = target: T1, GR; assay: GR transrepression of NF-kB in AD293 cells (pNF-kB-Luc dual-luciferase reporter)
Experimental: FIG. 10 is a bar graph showing the dose-response of Compound #53 on GR transrepression of NF-kB in AD293 cells.
GR Transrepression of NF-kB in AD293 Cells Transfected with 100 ng GR
[…] Dual-Luciferase values were measured by Promega standard manual.

[4] = dose-response repression experiments

CN(C)Cc1ccc(-c2cc3onc(-c4ccccc4)c3c(=O)n2C)cc1 [Compound #53, 6-(4-((dimethylamino)methyl)phenyl)-5-methyl-3-phenylisoxazolo[4,5-c]pyridin-4(5H)-one] was tested, and the GR transactivation activity (GR [1]) was “minimal GR transactivation activity”, the “GR transrepression activity on AP1 compared with currently used GR ligands” value (GR [2]; FIGS. 6-7) was “stronger GR transrepression activity than currently used GR ligands” and the “fold repression for AP1” value (GR [2]; at 50 μM, dose-response, FIG. 9) was “about 2000”. The “AP-1 activity on the reporter” value (GR [2]; [4]) was “almost zero”, the “GR transrepression activity on NF-kB compared with currently used GR ligands” value (GR [3]; FIG. 8) was “stronger GR transrepression activity than currently used GR ligands” and the “fold repression of NF-kB” value (GR [3]; at 50 μM, dose-response, FIG. 10) was “about 1000”. For the same molecule, the “NF-kB activity on the reporter” value (GR [3]; [4]) was “almost zero”.
